Assay results: patent US5464835A, “Use for bis-heterocyclic compounds and pharmaceutical compositions containing same” (Harbor Branch Oceanographic Institution, Inc., priority 1994, dated 1995)

What was measured:
[1] = target: bee venom phospholipase A2 (Apis mellifera, UniProt P00630); test: biochemical; format: biochemical; details: for inhibition at 1 µM: final concentration 1 μM; for inhibition at 1 µM / inhibition at 1.6 µM: read-out: % Inactivation of bee venom phospholipase A2; for inhibition at 1.6 µM: final concentration 1.6 μM
[2] = system: PMA-induced mouse ear edema; test: Mouse ear anti-inflammatory assay (topical inhibition of PMA-induced edema); details: for percent inhibition of mouse ear edema (dose-response): FIG. 3; for % Inhibition of edema / ED50, topical inhibition of PMA-induced mouse ear edema: topical; for % Inhibition of edema: Table 3; for inhibition of PMA-induced edema / anti-inflammatory activity (in words): result in words; for ED50, topical inhibition of PMA-induced mouse ear edema: simultaneous with PMA, 3 h 20 min, Table 2; for percent inhibition of edema (dose-response): FIG. 2
Experimental: A. Mouse ear anti-inflammatory assay. The test compound and a known inflammatory agent, phorbol myristate acetate (PMA), are topically applied simultaneously to the left ears of mice. Three hours and 20 minutes following application, the mice are sacrificed. Both left and right ears are removed and standard-sized bores taken. Edema (inflammation) is measured as the difference in weight between left and right ears (Van Arman, C. G. [1974] Clin. Pharmacol. Ther. 16:900-904).

[3] = system: Candida albicans; test: Antifungal activity against Candida albicans (MIC, RPMI-1640 growth medium); format: cell-based

Sequence of bee venom phospholipase A2 (P00630 34-167 limits assumed): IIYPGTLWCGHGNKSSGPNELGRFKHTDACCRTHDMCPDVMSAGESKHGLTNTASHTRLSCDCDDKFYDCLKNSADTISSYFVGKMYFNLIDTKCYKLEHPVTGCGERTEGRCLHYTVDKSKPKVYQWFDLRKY

Structure (SMILES) | inhibition at 1 µM ([1]; 1 h) [%] | % Inhibition of edema ([2]; dose 50 μg/ear) [%] | inhibition of PMA-induced edema / anti-inflammatory activity (in words) [2] | IC50 [1] [µM] | ED50, topical inhibition of PMA-induced mouse ear edema [2] [μg/ear] | further results
O=C(c1nc(-c2c[nH]c3cc(Br)ccc23)c[nH]1)c1c[nH]c2cc(O)ccc12 [Bromotopsentin] | 33 | 75.4 | significant potency |  |  | percent inhibition of mouse ear edema (dose-response) ([2]; 50 μg/ear): about 75%; percent inhibition of mouse ear edema (dose-response) ([2]; approximately 25 μg/ear): about 20%
CN1CC(c2c[nH]c3c(Br)c(Br)cc(O)c23)NCC1c1c[nH]c2cc(Br)ccc12 (stereo not shown) [Dragmacidin] | 27 | 64.0 | significant potency |  |  | 
O=C1NC(c2c[nH]c3cc(Br)ccc23)CN=C1c1c[nH]c2cc(Br)ccc12 (stereo not shown) [Hamacanthin A] |  |  |  |  |  | inhibition at 1.6 µM ([1]; 1 h): 37%; % Inhibition of edema ([2]; dose 50 μM (so in the source)): 50.0%; antifungal activity (in words) [3]: active components
O=C1NCC(c2c[nH]c3cc(Br)ccc23)N=C1c1c[nH]c2cc(Br)ccc12 (stereo not shown) [Hamacanthin B] |  |  |  |  |  | inhibition at 1.6 µM ([1]; 1 h): 32%; % Inhibition of edema ([2]; dose 50 μM (so in the source)): 34.0%; antifungal activity (in words) [3]: active components
C[C@]12CCC(=O)C=C1CC[C@@H]1[C@@H]2[C@@H](O)C[C@@]2(C)[C@H]1CC[C@]2(O)C(=O)CO [Hydrocortisone, reference compound] |  |  |  | > 1000 | 20 | inactivation of bee venom phospholipase A2 (in words) [1]: inactive
COc1ccc2c(c1)c(CC(=O)O)c(C)n2C(=O)c1ccc(Cl)cc1 [Indomethacin, reference compound] |  |  |  | > 1000 | 250 | inactivation of bee venom phospholipase A2 (in words) [1]: inactive
CC1=C(CC/C(C)=C/CCC2=CC[C@H](C3=CC(=O)O[C@H]3O)O[C@H]2O)C(C)(C)CCC1 [Manoalide, reference compound] |  |  |  | 0.05 | 100 | 
Brc1ccc2c(-c3c[nH]c(-c4c[nH]c5cc(Br)ccc45)n3)c[nH]c2c1 [Nortopsentin A] | 30 | 98.1 | significant potency |  |  | 
Brc1ccc2c(-c3nc(-c4c[nH]c5ccccc45)c[nH]3)c[nH]c2c1 [Nortopsentin B, nortopsentin B] | 27 | 38.2 |  |  |  | 
Brc1ccc2c(-c3c[nH]c(-c4c[nH]c5ccccc45)n3)c[nH]c2c1 [Nortopsentin C, nortopsentin C] | 26 | 70.1 | significant potency |  |  | 
CC(=O)Oc1ccc2c(C(=O)c3ncc(-c4c[nH]c5ccccc45)n3C(C)=O)c[nH]c2c1 [Topsentin diacetate, topsentin diacetate] | 32 | 42.6 | moderate activity |  |  | 
CC(=O)Oc1ccc2c(C(=O)c3ncc(-c4c[nH]c5ccccc45)[nH]3)c[nH]c2c1 [Topsentin monoacetate] | 42 | 45.8 | moderate activity |  |  | 
O=C(c1nc(-c2c[nH]c3ccccc23)c[nH]1)c1c[nH]c2cc(O)ccc12 [Topsentin] | 67 | 70.6 | significant potency | 0.5 | 15 | inactivation of bee venom phospholipase A2 (in words) [1]: capable of the inactivation of bee venom phospholipase A2; inhibition at 2 µM ([1]; 1 h, read-out: percent inactivation of bee venom phospholipase A2 (dose-response)): ≤ 80%; percent inhibition of edema (dose-response) ([2]; 100 μg/ear): more than 90%; percent inhibition of edema (dose-response) ([2]; about 12 μg/ear): ~50%; inhibition of PMA-induced edema / anti-inflammatory activity (in words) ([2]; listed as topsentin): greater potency than to the known anti-inflammatories hydrocortisone, indomethacin, and manoalide
